Melting point data for 86 compounds are collected here from a melting point compilation (Tetko et al.; mined from patent text by program, amines drawn as free bases though some values may be those of a salt).

What is called melting point is the temperature of the solid-liquid transition. Compound `C/C=C/CC(=O)N[C@H]1CC[C@H](CCN2CCC(c3cccc4c3CCO4)CC2)CC1` displayed a melting point of 196 °C.
For `CCOC(=O)CCc1oc2cccc(O)c2c1C` the value was 61 to 63 °C; for `COC(=O)CCCc1ccc(CNC(=O)C2Cc3ccccc3N2S(=O)(=O)c2ccc(-c3cccc(C(F)(F)F)c3)cc2)cc1` (stereo unspecified), 55 °C; for `O=C(O)COc1cccc2c1CCC(COC(=O)N(c1ccccc1)c1ccccc1)C2` (stereo unspecified), 137 to 142 °C.
Compound `CCCc1nc(-n2cccc2C(=O)C(F)(F)F)c(C(=O)OC)[nH]1` showed a melting point of 158 to 159 °C.
With `C#CCOc1ccc2c(c1)c(-c1ccc(C3CC3)cc1)nc(=O)n2Cc1ccccc1`, the melting point was in the range of 112 to 113 °C.
`COC(=O)CCCCOc1ccc2nc3[nH]c(=O)n(C)c3cc2c1` displayed a melting point of 223 to 225 °C.
Under `CCCCCCc1ccc2c(c1)NC(NC(C)C)=NS2(=O)=O` stands 319 to 321 °C; under `CC(C)(C)CC(C)(C)c1cc(Cc2cc(C(C)(C)CC(C)(C)C)cc(-n3nc4ccccc4n3)c2O)c(O)c(-n2nc3ccccc3n2)c1`, 198 °C.
For `CN(C(=O)c1ccc(Cn2cnc3ccccc32)cc1)[C@@H]1CCNC1` the value was 150 to 152 °C.
For `Brc1ccccc1C=Cc1ccco1` the value was 108 to 110 °C; for `COc1ccc2ccc3c(c2c1)CCC(=O)O3`, 100 to 101 °C; for `CC(C)CC(NS(=O)(=O)c1ccc(Cl)cc1)C(=O)Nc1ccc(CC(=O)O)cc1` (racemic), 208 to 209 °C.
With `C=C(C)COc1ccc(C(=O)C=Cc2ccccc2)c(O)c1`, the melting point is 114 to 115 °C.
Under `O=C(O)C1CCC(c2ccc(OCc3ccc4ccccc4n3)cc2)(c2ccc(OCc3ccc4ccccc4n3)cc2)CC1` stands 194 to 199 °C; under `COc1ccc(CNC(=O)c2ccc3n2Cc2ccccc2N(C(=O)c2ccc(-c4ccccc4C)c(C)c2)C3)cc1`, 127 to 128 °C.
For `CC1(C)CCC(C)(C)c2cc(OCc3ccc(C=O)cc3)ccc21` the value was 102 to 104 °C.
Under `CS(=O)c1onc(-c2ccccc2)c1-c1ccc(S(N)(=O)=O)cc1` (stereo unspecified) stands 194 to 204 °C; under `Cc1cccc(CCCCCCCCC(=O)O)c1`, 39 to 40 °C.
The compound `Cc1cc(NC(=O)c2ccn3c2CSC3c2cccnc2)c2ccccc2c1` (stereo unspecified) registered a melting point of 172 °C.
For `O=C(CN1C(=O)CC1Sc1ccc(Cl)cc1)NCCCCCCc1ccccc1` (stereo unspecified) the value was 52 to 54 °C.
Under `CCc1nc2c(cnn2CC)c(NC2CCOCC2)c1CNC(=O)c1cccc(C(=O)NCc2ccc(Cl)c(-c3cccc(C=O)c3)c2)c1` stands 131 to 134 °C; under `CCCn1c(C)nn(-c2ccc(N3CCN(c4ccc(OC)cc4)CC3)cc2)c1=O`, 202 °C; under `CCC1CCC(Oc2cc(F)cc(C(=O)Nc3ccc(OCCN4CCOCC4)c4ccccc34)c2)CC1` (stereo unspecified), 102 to 105 °C.
For `CC1(C)NC(=O)N(c2ccc([N+](=O)[O-])c(Cl)c2)C1=O` the value was 144 to 145 °C.
In turn, `CN1CCC2=C(CCCC2)C1Cc1ccc(O)cc1` (single isomer, unassigned; (-)) displayed a melting point of 119 to 120 °C.
Under `CC(C)C(=O)NCCCC(=O)OC1c2ccccc2C(=O)N1c1ccc2ccc(Cl)nc2n1` (stereo unspecified) stands 208 °C; under `Cc1ccc(NC(=O)NCc2cccc3c2C(=O)N(C2CCC(=O)NC2=O)C3=O)cc1Cl` (stereo unspecified), 238 to 240 °C.
Under `COc1ccc2c(c1)C1=NNC(c3ccncc3)C1CCC2` (stereo unspecified) stands 162 to 166 °C; under `CCOC(=O)C(C#N)=Cc1ccc(NC(=O)CC[Si](C)(C)C)cc1`, 157 °C; under `O=C1OC(CCl)CN1c1ccc(S(=O)(=O)C(F)(F)F)cc1` (stereo unspecified), 121 to 123 °C.
For `Cc1ccc(C2CC(=O)c3c(C)coc3C2)cc1` (stereo unspecified) the value was 113 to 114 °C; for `CSc1nnc(C(C)(C)C)[nH]1`, 191 to 194 °C.
Turning to `COc1ccc(N(Cc2cccc3ccccc23)c2ccccc2)cc1`, the melting point fell in the range of 154 to 159 °C.
For `COC(=O)c1cc(N=Nc2ccc(S(=O)(=O)Nc3ccccn3)cc2)ccc1OC(C)=O` the value was 204 to 207 °C; for `Cc1ccc(Sc2cc(C(C)(C)C)c(O)c(C(=O)O)c2C)cc1`, 163 to 164 °C.
For `COc1cccc(OC)c1C(=O)Nc1ccc(OCCN2CCCC2)cc1` the value was 136 to 140 °C; for `CCCC(=O)c1cnc2c(OC)cccc2c1Nc1ccc(O)c(F)c1`, 266 to 268 °C.
For `CCNC(=O)c1sc(-n2ccc(O)cc2=O)cc1C` the value was 183 to 184 °C.
For the compound `CCOC(=O)c1ccc(NC(=O)c2ccc3c(c2)CCC(C)(C)C(=O)N3C)cc1`, the melting point was in the range of 169 to 170 °C.
For `C=C[C@]1(C)C(=O)N(C)[C@H](C(C)(C)C)N1C(=O)c1ccccc1` the value was 117 to 118 °C; for `Cc1ccc(-c2nc(=S)n(Cc3ccccc3)[nH]2)cc1`, 234 to 235 °C; for `CCOC(=O)N1CC2CCN(c3c(F)cc4c(=O)c(C(=O)O)cn(C5CC5)c4c3F)C2C1` (stereo unspecified), 192 to 193 °C.
Under `Oc1cc2ccccc2c(Br)c1O` stands 98 to 102 °C; under `CC(=O)NC(CC=Cc1ccccc1)(COC(C)=O)COC(C)=O`, 88 to 90 °C; under `OCCC1CCc2cc(OCc3ccc(-c4ccccc4)cc3)ccc2C1` (stereo unspecified), 101 to 102 °C.
Under `COc1cc2c(cc1-c1c(C)nn(C)c1C)-c1c(-c3cccs3)c3c(n1CC2)C(=O)N(C(C)C)CCNC3` stands 250 to 252 °C; under `COc1ccc(N2CCN(c3c(C)c(C)c4c(c3C)C(c3cccs3)C(C)(C)O4)CC2)cc1` (stereo unspecified), 139 to 141 °C.
With `CCCCOc1cc([N+](=O)[O-])c(OCCCC)cc1N=NN1CCOCC1`, the melting point lay in the range of 79 to 81 °C.
Under `c1ccc(CNc2ccc3ccccc3c2-c2c(P(c3ccccc3)c3ccccc3)ccc3ccccc23)cc1` stands 70.1 °C; under `CCOC(=O)C1=C(C)NC(CSc2ncccn2)=C(C(=O)OCC)C1c1cccc([N+](=O)[O-])c1` (stereo unspecified), 115 to 117 °C; under `CCOC(=O)C[C@@H]1CCC/C1=C\Cc1c(O)c2c(c(C)c1CC)COC2=O`, 95 to 95.7 °C.
Under `O=C(O)c1cccc2ncc(-c3ccccc3)cc12` stands over 290 °C.
Under `CCCc1c(C)[nH]c(C(=O)OCC)c1C` stands 104 to 106 °C.
Regarding `CCNC(=S)Nc1ccc2[nH]c3cnc(C(=O)OC(C)C)c(CC)c3c2c1`, the melting point lay in the range of 234 to 236 °C.
For `CC(C)c1ccc2c(c1)c(Sc1ccccc1)c(CCC(C)(C)C(=O)O)n2Cc1ccc(Cl)cc1` the value was 164 to 166 °C; for `C=CCN(C)C(=O)/C=C/CSc1nc(N)cc(Cl)n1`, 140 to 142 °C.
For `CCCCN(CCCC)CCCOc1ccc(S(=O)(=O)c2c(C3CCCCC3)cn3ccccc23)cc1` the value was 130 to 131 °C.
Under `Cc1ccc2[nH]c(=O)c(C#N)c(Cl)c2c1` stands 264 °C.
The compound `Nc1cccc(CCCOCCCCCCNCC(O)c2cc(Cl)c(N)c(Cl)c2)n1` (stereo unspecified) had a melting point of 62 to 65 °C.
For `COC(=O)c1oc(C(C)(C)C)cc1N` the value was 91 to 92 °C; for `CCOC(=O)c1cc(C(=O)C(C)C)c(=O)[nH]c1C(=O)OCC`, 116 to 118 °C; for `C#CCN1C(=O)CCc2cc(F)c(-n3nc4ccc(Cl)cn4c3=O)cc21`, 200 to 202 °C.
Under `O=C1CCC(c2ccc(O)cc2)=NN1c1ccccn1` stands over 220 °C.
In the case of `O=C(Nc1cccc(S(=O)(=O)N2CCCC2)c1)c1cnn2c(C(F)(F)F)cc(-c3ccc(C(F)(F)F)cc3)nc12`, the melting point turned out to be 241 °C.
For `O=C(O)c1ccc2c(c1)COCC2` the value was 140 to 142 °C; for `O=P(CN=Cc1ccccc1Cl)(c1ccccc1)c1ccccc1`, 89 °C; for `CCn1ncc2c1ncc1c(N3CCOCC3)nc3cc(C)nn3c12`, 179 to 180 °C.
For `CC(=O)Nc1ccc(C#N)cc1F` the value was 170 to 172 °C.
Compound `COc1cc(C(=O)O)c(-c2c(C(=O)O)ccc3c2OCO3)cc1OC` yielded a melting point of 207 to 210 °C.
For `COc1ccnc(CSc2nc3c(C)c(OC(F)F)c(C)cc3[nH]2)c1` the value was 168 to 169 °C; for `O=C(O)c1cnn(-c2ccc(Cl)cc2)c1C1CC1`, 186 to 187 °C; for `CC(C)c1ccc(-n2ncc(C(=O)NC34CC5CC(CC(C5)C3)C4)c2OCCN2CCOCC2)cc1`, 132 to 134 °C.
For `CCOC(=O)c1sc(N2CCN(Cc3ccc(Cl)cc3)C2=O)nc1C` the value was 117 to 119 °C.
For `CSC(=C[N+](=O)[O-])N1CCCCC1` the value was 65 to 67 °C; for `Cc1c2cccc(-c3cccc(C(=O)NCCC#N)c3)c2nn1Cc1cccc(C(F)(F)F)c1`, 196 to 197 °C.
Compound `O=C(O)C1CSC(Cc2ccccc2)N1` (mixture of isomers) had a melting point of 200 °C.
For the compound `CCOC(=O)C1=C(CC)Nc2n[nH]cc2C1c1ccccc1OC` (stereo unspecified), the melting point was 169 °C.
For `CN(C)C(=O)c1nnc(S)o1` the value was 185 to 187 °C; for `CC12CC=C3C(CCC4(CCC#N)CC(O[Si](C)(C)C(C)(C)C)CCC34C)C1CCC2O[Si](C)(C)C(C)(C)C` (stereo unspecified), 194 to 195 °C; for `O=C1CC(=O)N(c2ccccc2)c2ccccc2N1NCCC1C2CC3CC(C2)CC1C3` (stereo unspecified), 196 to 197 °C.
Under `COc1cccc2c1C13CCN(C(=O)C4CC4)C(C2)C1CCC(=O)C3` (stereo unspecified) stands 144 to 147 °C.
Under `O=C(O)c1ncoc1-c1ccoc1` stands 189 to 191 °C; under `O=C(O)CCc1nnc2c(=O)[nH]c3cc(C(F)(F)F)ccc3n12`, 333 °C; under `CNC=C(C(=O)C=Cc1ccc(Cl)cc1)C(=O)OC`, 114 to 116 °C.
Compound `Cc1ccc2c(c1)c1c(n2C(=O)c2ccc(Cl)cc2)CCC(C(=O)O)C1` (stereo unspecified) displayed a melting point of 211 to 214 °C.
